This note sets out measurements from ChEMBL document CHEMBL1201862, “PubChem BioAssay data set” (2004).

Each structure is given as a SMILES string.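 The compound was tested at five concentrations on cells cultured in 96-well plates, with a 48-hour exposure period. The concentration for 50% growth inhibition is given as GI50.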 Activity calls are given as the source filed them. Cut-off read from the data, not from the text of the source: active = GI50 up to about 1.1 µM and inactive = higher. Some results are limits rather than exact numbers.

Some test systems named below: Hs-578T; SR; LOX IMVI; SF-268; HL-60; MOLT-4; HT-29; SNB-19; CCRF-CEM; SN12C; BT-549; SK-MEL-5; HOP-62; MDA-MB-435; DU-145; MDA-N; SK-MEL-2; T47D; NCI-H522.
Assay in all cases: NCI tumour cell line growth inhibition, 48 h

Regarding `CC1C2=C(O)CC(C)(C)CC2=NC2=C1C(=O)CC(C)(C)C2` (configuration not stated), the GI50 with Hs-578T, in the assay with SR, in the assay on LOX IMVI, with SF-268, in the assay with HL-60 and with MOLT-4 was > 100 µM (inactive) in each case. In addition, the GI50 in the assay with HT-29, in the assay with SNB-19, with CCRF-CEM, with SN12C, in the assay on BT-549 and with SK-MEL-5 was > 100 µM (inactive) each time.

In the case of `CC[N+]1(C)CCC(O)(/C=C/c2ccc(Cl)cc2)C(C(=O)/C=C/c2ccc(Cl)cc2)C1` (configuration not stated), the GI50 in the assay with HOP-62 was 14.8 µM (inactive); with Hs-578T, 3.08 µM (inactive); with LOX IMVI, 2.71 µM (inactive); in the assay on SF-268, 4.55 µM (inactive); with MDA-MB-435, 3.85 µM (inactive); in the assay with DU-145, 12.1 µM (inactive). The GI50 with HL-60 was 1.6 µM (inactive); with MOLT-4, 2.5 µM (inactive); in the assay on HT-29, 3.08 µM (inactive); in the assay with MDA-N, 3.45 µM (inactive); in the assay with SNB-19, 4.46 µM (inactive); in the assay on CCRF-CEM, 1.08 µM (active). The GI50 in the assay on SN12C is 7.11 µM (inactive); in the assay on SK-MEL-2 it was 15.8 µM (inactive); in the assay on T47D, 4.86 µM (inactive); in the assay on BT-549, 13.8 µM (inactive); in the assay with NCI-H522 it was 2.88 µM (inactive); in the assay with SK-MEL-5 it was 10.5 µM (inactive).

For the compound `O=C(O)Cc1ccc(Oc2nc3ccccc3nc2C(=O)O)cc1`, the GI50 was > 100 µM (inactive) with HOP-62; > 100 µM (inactive) in the assay on Hs-578T; 0.0187 µM (active) in the assay on SR; > 100 µM (inactive) in the assay with LOX IMVI; > 100 µM (inactive) in the assay on SF-268; 12.8 µM (inactive) in the assay on MDA-MB-435. Also, the GI50 in the assay on DU-145 was > 100 µM (inactive); with HL-60 it was 0.0305 µM (active); with HT-29, > 100 µM (inactive); with SNB-19 it was > 100 µM (inactive); with CCRF-CEM, > 100 µM (inactive); in the assay with SN12C, > 100 µM (inactive). The GI50 with SK-MEL-2, in the assay on T47D, in the assay with BT-549, in the assay on NCI-H522 and in the assay on SK-MEL-5 was > 100 µM (inactive) each time.

Consider `NC(=S)NS(=O)(=O)c1ccc(F)cc1`, for which the GI50 in the assay on HOP-62, in the assay with Hs-578T, in the assay with LOX IMVI, in the assay on SF-268, in the assay on MDA-MB-435 and in the assay with DU-145 was > 100 µM (inactive) in each case. In addition, the GI50 with HL-60, in the assay with MOLT-4, with HT-29, in the assay on MDA-N, with SNB-19 and in the assay on CCRF-CEM was > 100 µM (inactive) in each case. Further, the GI50 in the assay on SN12C, in the assay with SK-MEL-2, with T47D, with BT-549, in the assay with NCI-H522 and in the assay with SK-MEL-5 was > 100 µM (inactive) each time.

Regarding `CSc1nc(-c2ccccc2)[nH]c(=O)n1`, the GI50 with HOP-62 is > 100 µM (inactive); with Hs-578T, > 100 µM (inactive); in the assay with SF-268, > 100 µM (inactive); with MDA-MB-435, > 100 µM (inactive); in the assay with DU-145, > 100 µM (inactive); with HL-60, 54.5 µM (inactive). The GI50 with MOLT-4, in the assay with HT-29, with SNB-19, in the assay with CCRF-CEM, in the assay on SN12C and with SK-MEL-2 was > 100 µM (inactive) in each case. The GI50 in the assay on T47D, in the assay with BT-549, in the assay with NCI-H522 and in the assay on SK-MEL-5 was > 100 µM (inactive) in each case.

`O=C(/C=C/c1ccc2ccccc2c1)NCc1ccc(C(=O)NCc2ccccc2)cc1`: the GI50 in the assay with HOP-62 was 14.2 µM (inactive); with Hs-578T, 37.9 µM (inactive); in the assay with SR, > 100 µM (inactive); in the assay on LOX IMVI, > 100 µM (inactive); with SF-268, 36.5 µM (inactive); in the assay on MDA-MB-435, > 100 µM (inactive). In addition, the GI50 with DU-145 was > 100 µM (inactive); with HL-60, 14.7 µM (inactive); in the assay on MOLT-4, > 66.7 µM (inactive); with HT-29, 35.7 µM (inactive); with SNB-19 it was 35.9 µM (inactive); with CCRF-CEM, > 93.3 µM (inactive). In addition, the GI50 is > 100 µM (inactive) in the assay with SN12C; > 100 µM (inactive) with SK-MEL-2; > 36.3 µM (inactive) with T47D; 32.9 µM (inactive) in the assay with BT-549; > 56.8 µM (inactive) in the assay on NCI-H522; 98.9 µM (inactive) in the assay with SK-MEL-5.

As for `COc1cc(/C=C2/SC(c3ccccc3)N(c3cc(Cl)ccc3Cl)C2=O)cc(OC)c1OC` (configuration not stated), the GI50 was > 100 µM (inactive) in the assay with HOP-62; 45.5 µM (inactive) in the assay on SR; 67.6 µM (inactive) in the assay with LOX IMVI; 22.3 µM (inactive) in the assay on MDA-MB-435; > 100 µM (inactive) in the assay with DU-145; 51.9 µM (inactive) in the assay with HL-60. The GI50 in the assay on MOLT-4 was > 100 µM (inactive); with HT-29, > 100 µM (inactive); in the assay on MDA-N, 19.1 µM (inactive); in the assay with SNB-19, > 100 µM (inactive); with CCRF-CEM, 38.5 µM (inactive); in the assay with SN12C, > 100 µM (inactive). Besides, the GI50 in the assay with SK-MEL-2 was > 100 µM (inactive); with T47D it was 30.1 µM (inactive); with BT-549 it was > 100 µM (inactive); in the assay on NCI-H522, 47.1 µM (inactive); in the assay on SK-MEL-5 it was 59.7 µM (inactive).

Turning to `CC1(C)CC(=O)C(CC(C(=O)C(=O)Nc2cc(C(F)(F)F)ccc2Cl)C(=O)c2ccco2)C(=O)C1` (configuration not stated), the GI50 with Hs-578T, in the assay on LOX IMVI, with SF-268, in the assay on MDA-MB-435, in the assay with DU-145 and with HL-60 was > 100 µM (inactive) in each case. For the same compound, the GI50 in the assay with MOLT-4, in the assay with HT-29, with MDA-N, with SNB-19, with CCRF-CEM and with SN12C was > 100 µM (inactive) each time. In addition, the GI50 with SK-MEL-2, in the assay with T47D, in the assay with BT-549, with NCI-H522 and in the assay on SK-MEL-5 was > 100 µM (inactive) each time.

Turning to `CC(=O)c1cc(C)n2c1CS[C@@H]2c1ccccc1`, the GI50 with HOP-62 is 83.9 µM (inactive); in the assay with Hs-578T it was > 100 µM (inactive); in the assay on SR, 27 µM (inactive); in the assay on LOX IMVI, 26.3 µM (inactive); in the assay with SF-268 it was 90.2 µM (inactive); in the assay with MDA-MB-435, 27.3 µM (inactive). The GI50 in the assay on DU-145 was 29.1 µM (inactive); with HL-60, 34 µM (inactive); with MOLT-4, 25.2 µM (inactive); in the assay with HT-29, 46.3 µM (inactive); with SNB-19, > 100 µM (inactive); with CCRF-CEM, 16.3 µM (inactive). Also, the GI50 is 57.3 µM (inactive) with SN12C; 98.9 µM (inactive) with SK-MEL-2; 35.6 µM (inactive) with T47D; 37.2 µM (inactive) in the assay on BT-549; 30.2 µM (inactive) with NCI-H522; 32.2 µM (inactive) in the assay with SK-MEL-5.

Regarding `CC(C)(C)OC(=O)CN1CCNCCN(CC(=O)OC(C)(C)C)CC1`, the GI50 in the assay with HOP-62 is > 100 µM (inactive); in the assay on Hs-578T, > 100 µM (inactive); in the assay on SR it was > 100 µM (inactive); with LOX IMVI, > 100 µM (inactive); with DU-145, > 100 µM (inactive); in the assay with HL-60, 19.2 µM (inactive). Also, the GI50 in the assay with MOLT-4 is > 100 µM (inactive); with HT-29 it was 44.3 µM (inactive); in the assay with MDA-N it was > 100 µM (inactive); with SNB-19 it was > 100 µM (inactive); in the assay with CCRF-CEM it was > 100 µM (inactive); with SN12C, > 100 µM (inactive). For the same compound, the GI50 is > 100 µM (inactive) in the assay on SK-MEL-2; > 100 µM (inactive) with T47D; > 100 µM (inactive) in the assay on BT-549; 56.9 µM (inactive) with NCI-H522; > 100 µM (inactive) in the assay with SK-MEL-5.

For `O=C(Nc1ccc(N2C(=O)CSC2c2ccccc2O)cc1)c1ccc(N2C(=O)CSC2c2ccccc2O)cc1` (configuration not stated), the GI50 is 32.4 µM (inactive) in the assay on HOP-62; 71.9 µM (inactive) with Hs-578T; 75.3 µM (inactive) in the assay on LOX IMVI; 95.1 µM (inactive) in the assay on SF-268; 61 µM (inactive) in the assay on MDA-MB-435; > 100 µM (inactive) in the assay with DU-145. For the same compound, the GI50 is > 100 µM (inactive) in the assay on MOLT-4; > 100 µM (inactive) in the assay on HT-29; 83.8 µM (inactive) with MDA-N; 31.4 µM (inactive) in the assay with SNB-19; > 100 µM (inactive) in the assay with CCRF-CEM; > 100 µM (inactive) in the assay on SN12C. For the same compound, the GI50 with SK-MEL-2 was 84.7 µM (inactive); in the assay with T47D, 43.3 µM (inactive); in the assay on BT-549, 87.1 µM (inactive); in the assay with NCI-H522 it was 55.7 µM (inactive); in the assay with SK-MEL-5 it was 77.4 µM (inactive).

With `N#CC(C(=O)c1ccccc1F)c1nc2cc(C(F)(F)F)ccc2s1` (configuration not stated), the GI50 in the assay with HOP-62 is 18.7 µM (inactive); in the assay with LOX IMVI, 17.6 µM (inactive); with SF-268, 30.3 µM (inactive); in the assay on MDA-MB-435, 25.8 µM (inactive); with DU-145, 28.3 µM (inactive); in the assay on MOLT-4, 31.1 µM (inactive). The GI50 was 17.6 µM (inactive) in the assay on HT-29; 23.1 µM (inactive) with SN12C; 25.9 µM (inactive) in the assay on T47D; 23 µM (inactive) in the assay on BT-549; 17.3 µM (inactive) in the assay on NCI-H522; 20.8 µM (inactive) with SK-MEL-5.
